Values quoted from earlier work in publication PMC6974622, “DeepMalaria: Artificial Intelligence Driven Discovery of Potent Antiplasmodials” (Frontiers in Pharmacology, 2020).
Where “and” joins values, the source holds several entries; their conditions need not be identical. Equal entries are not always repeated. *1 amine or outer side, *2 acyl side, *3 side chain or, on linkers, in order; H or OH if unused. Where a SMILES comes first, the peptide text is derived from it. Bridges are numbered along the chain shown (N, C = ends). Roman numbers before positions name the chains, in order. [ ]: non-standard residue; d: D form. Actinocin(1to9) = Cc1c2oc3c(C)ccc(C(=O)[*:2])c3nc-2c(C(=O)[*:1])c(N)c1=O; Actinocin(9to1) = Cc1c2oc3c(C)ccc(C(=O)[*:1])c3nc-2c(C(=O)[*:2])c(N)c1=O; NMeV = CN[C@H](C(=O)O)C(C)C; Sar = CNCC(=O)O

Tested on: 3D7
Design: unit not given here
Conditions: cited from earlier work
For `CC[C@H](C)[C@@H]1NC(=O)[C@@H](NC(=O)c2c3nc4c(C(=O)N[C@@H]5C(=O)N[C@@H](C(C)C)C(=O)N6CCC[C@H]6C(=O)N(C)CC(=O)N(C)[C@@H](C(C)C)C(=O)O[C@@H]5C)ccc(C)c4oc-3c(C)c(=O)c2N)[C@@H](C)OC(=O)[C@H](C(C)C)N(C)C(=O)CN(C)C(=O)[C@@H]2CCCN2C1=O` [Cactinomycin] (I: TIP[Sar][NMeV] / II: TVP[Sar][NMeV]; ester I:1-I:C, II:1-II:C; linker I:N-II:N via Actinocin(1to9)), the 3D7 is listed as 99.
For `CC1=CC(=C(c2ccc(N)cc2)c2ccc(N)cc2)C=CC1=N.Cl` [Basic fuchsin], the 3D7 is listed as 96.3.
In the case of `OCc1cc(C(O)CNCCCCCCOCCCCc2ccccc2)ccc1O` (stereo not drawn) [Salmeterol xinafoate], the 3D7 is given as 72.5.

Same assay, conditions: repurposing dataset, 179 approved drugs; ref https://www.nature.com/articles/nchembio806; cited from earlier work
In the case of `CCCCCCCCCCCCCCCC[N+](C)(C)Cc1ccccc1` [Cetalkonium chloride], the 3D7 is listed as 74.2.
In the case of `CC(=O)[O][Pt]([NH2])([Cl])([Cl])([NH]C1CCCCC1)[O]C(C)=O` [Satraplatin], the 3D7 is given as 87.3.
In the case of `COc1ccc(CCN2CCC(Nc3nc4ccccc4n3Cc3ccc(F)cc3)CC2)cc1` [Astemizole], the 3D7 is listed as 97.6.
For `OCCN1CCN(CCCN2c3ccccc3Sc3ccc(Cl)cc32)CC1` [Perphenazine], the 3D7 is given as 85.6.
For Heparin, the 3D7 is given as 79.9.
In the case of `Cc1c2oc3c(C)ccc(C(=O)N[C@@H]4C(=O)N[C@H](C(C)C)C(=O)N5CCC[C@H]5C(=O)N(C)CC(=O)N(C)[C@@H](C(C)C)C(=O)O[C@@H]4C)c3nc-2c(C(=O)N[C@@H]2C(=O)N[C@H](C(C)C)C(=O)N3CCC[C@H]3C(=O)N(C)CC(=O)N(C)[C@@H](C(C)C)C(=O)O[C@@H]2C)c(N)c1=O` [Dactinomycin] (I: T[dV]P[Sar][NMeV] / II: T[dV]P[Sar][NMeV]; ester I:1-I:C, II:1-II:C; linker I:N-II:N via Actinocin(9to1)), the 3D7 is listed as 99.2.
For `CCCCCCCCCCCCCCCC[n+]1ccccc1` [Cetylpyridinium chloride], the 3D7 is listed as 98.6.
For `Oc1ccc(CCN2CCC(Nc3nc4ccccc4n3Cc3ccc(F)cc3)CC2)cc1` [Desmethylastemizole], the 3D7 is listed as 96.7.
For `N[C@H](C(=O)O)[C@@H]1CC(Cl)=NO1` [Acivicin], the 3D7 is listed as 98.6.
For `CCCCCCCCCCCC[N+](C)(C)Cc1ccccc1` [Benzododecinium chloride], the 3D7 is listed as 99.9.
For `CCc1nc(N)nc(N)c1-c1ccc(Cl)cc1` [Pyrimethamine], the 3D7 is listed as 96.5.
For `CC(C)(C)CC(C)(C)c1ccc(OCCOCC[N+](C)(C)Cc2ccccc2)cc1` [Benzethonium chloride], the 3D7 is listed as 98.6.
In the case of Corticotropin A, the 3D7 is given as 86.4.
For `CC(C(O)c1ccc(O)cc1)N1CCC(Cc2ccccc2)CC1` (stereo not drawn) [Ifenprodil], the 3D7 is listed as 82.3.
In the case of `[H]/N=C(\N/C(=N/[H])NCCCCCCNC(=N)NC(=N)Nc1ccc(Cl)cc1)Nc1ccc(Cl)cc1` [Chlorhexidine], the 3D7 is given as 95.4.
For `CCOC(=O)C1=C(COCCN)NC(C)=C(C(=O)OC)C1c1ccccc1Cl` (stereo not drawn) [Amlodipine besylate], the 3D7 is listed as 68.2.
In the case of `COc1cccc2c1C(=O)c1c(O)c3c(c(O)c1C2=O)C[C@@](O)(C(=O)CO)C[C@@H]3O[C@H]1C[C@H](N)[C@@H](O)[C@H](C)O1` [Epirubicin], the 3D7 is listed as 98.4.
In the case of `C[n+]1c2cc(N)ccc2cc2ccc(N)cc21.Nc1ccc2cc3ccc(N)cc3nc2c1.[Cl-]` [Acriflavine], the 3D7 is given as 98.2 and 99.
For `Nc1nc(N)c2nc(CNc3ccc(C(=O)N[C@@H](CCC(=O)O)C(=O)O)cc3)cnc2n1` [Aminopterin], the 3D7 is given as 95.7.
In the case of `CN(C)c1ccc2nc3ccc(=[N+](C)C)cc-3sc2c1` [Methylene blue], the 3D7 is listed as 98.
In the case of Meclocycline, the 3D7 is given as 68.7.
For `CN1CCC(=C2c3ccccc3Sc3ccccc32)CC1` [Pimethixene], the 3D7 is given as 75.5.
In the case of `CCN(CC)CCOc1ccc2c(c1)C(=O)c1cc(OCCN(CC)CC)ccc1-2` [Tilorone], the 3D7 is given as 98.9.
In the case of `CCCCC(CC)CNC(=N)NC(=N)NCCCCCCNC(=N)NC(=N)NCC(CC)CCCC` (stereo not drawn) [Alexidine], the 3D7 is given as 99.5.
In the case of `CCCCOc1ccc(CC(=O)NO)cc1` [Bufexamac], the 3D7 is given as 93.2.
For `CC[C@@]1(O)C[C@H](O[C@H]2C[C@H](N(C)C)[C@H](O[C@H]3C[C@H](O)[C@H](O[C@H]4CCC(=O)[C@H](C)O4)[C@H](C)O3)[C@H](C)O2)c2c(cc3c(c2O)C(=O)c2c(O)cccc2C3=O)[C@H]1C(=O)OC` [Aclarubicin], the 3D7 is listed as 99.6.
In the case of `CC/C(=C(\c1ccccc1)c1ccc(OCCN(C)C)cc1)c1ccccc1` [Tamoxifen], the 3D7 is listed as 97.5.
In the case of `Nc1nc2nc[nH]c2c(=S)[nH]1` [Thioguanine], the 3D7 is listed as 68.7.
In the case of `O=S(=O)([O-])[O-].[Cu+2]` [Copper sulfate], the 3D7 is given as 80.4.
In the case of `CC(C)c1nc(CN(C)C(=O)N[C@H](C(=O)N[C@@H](Cc2ccccc2)C[C@H](O)[C@H](Cc2ccccc2)NC(=O)OCc2cncs2)C(C)C)cs1` [Ritonavir], the 3D7 is given as 84.9.
For `CCCCCCc1ccc(O)cc1O.Nc1c2ccccc2nc2ccccc12` [Acrisorcin], the 3D7 is given as 98.4.
In the case of `CC(=O)OC[C@H]1O[C@@H]([S-])[C@H](OC(C)=O)[C@@H](OC(C)=O)[C@@H]1OC(C)=O.CCP(CC)CC.[Au+]` [Auranofin], the 3D7 is listed as 99.4.
In the case of `C=C[C@H]1CN2CC[C@H]1C[C@H]2[C@H](O)c1ccnc2ccccc12` [Cinchonidine], the 3D7 is listed as 97.
In the case of `Nc1ccn([C@@H]2O[C@H](CO)[C@@H](O)C2(F)F)c(=O)n1` [Gemcitabine], the 3D7 is given as 75.3.
In the case of `CCN1/C(=C/C=C/C=C/c2sc3ccccc3[n+]2CC)Sc2ccccc21` [Dithiazanine iodide], the 3D7 is given as 98.
For `C=C[C@H]1CN2CC[C@H]1C[C@H]2[C@H](OC(=O)OCC)c1ccnc2ccc(OC)cc12` [Quinine ethyl carbonate], the 3D7 is given as 94.5.
In the case of `CCN(CC)CCCC(C)Nc1c2ccc(Cl)cc2nc2ccc(OC)cc12` (stereo not drawn) [Quinacrine], the 3D7 is listed as 99.2.
In the case of `CN1C[C@H](CNC(=O)OCc2ccccc2)C[C@@H]2c3cccc4c3c(cn4C)C[C@H]21` [Metergoline], the 3D7 is listed as 85.9.
For `CCCC(C(=O)OCCN(CC)CC)(c1ccccc1)c1ccccc1` [Proadifen], the 3D7 is listed as 85.9.
For `CNC(=O)Oc1ccc2c(c1)[C@]1(C)CCN(C)[C@@H]1N2C` [Eserine], the 3D7 is listed as 79.2.
For `COc1ccc2cc3[n+](cc2c1OC)CCc1cc2c(cc1-3)OCO2` [Berberine], the 3D7 is listed as 98.2.
For `CCCCCCCCCCCCCCCCOP(=O)([O-])OCC[N+](C)(C)C` [Miltefosine], the 3D7 is listed as 99.5.
In the case of `COCC(=O)O[C@]1(CCN(C)CCCc2nc3ccccc3[nH]2)CCc2cc(F)ccc2[C@@H]1C(C)C` [Mibefradil], the 3D7 is given as 92.
For `CN(C)C(=O)C(CCN1CCC(O)(c2ccc(Cl)cc2)CC1)(c1ccccc1)c1ccccc1` [Loperamide], the 3D7 is given as 97.7.
For `CC[C@@H](C(=O)[C@@H](C)[C@@H](O)[C@H](C)CCc1ccc(C)c(O)c1C(=O)O)[C@H]1O[C@](CC)([C@H]2CC[C@](O)(CC)[C@H](C)O2)C[C@@H]1C` [Lasalocid A], the 3D7 is listed as 98.2.
In the case of `COc1cccc2c1C(=O)c1c(O)c3c(c(O)c1C2=O)C[C@@](O)(C(=O)CO)C[C@@H]3O[C@H]1C[C@H](N)[C@H](O)[C@H](C)O1` [Doxorubicin], the 3D7 is given as 99.5.
For `C=C[C@H]1C[N@@]2CC[C@H]1C[C@@H]2[C@@H](O)c1ccnc2ccc(OC)cc12` [Quinidine], the 3D7 is listed as 88.5.
For `Cc1nc2n(c(=O)c1CCN1CCC(c3noc4cc(F)ccc34)CC1)CCCC2` [Risperidone], the 3D7 is given as 67.5.
